From ChEMBL document CHEMBL3044990, “Synthesis and Insecticidal Activity of 5-Dimethylamino-1, 3dithianes” (1991)
In brackets after ≈: the same amount, converted by molar mass.

Key:
Format in all cases: functional
Spodoptera litura = assay: Insecticidal activity against third-instar larvae of Spodoptera litura in soybean seedlings assessed as mortality at 500 ppm after 48 hr
[1] = test system: Henosepilachna vigintioctopunctata; assay: Insecticidal activity against third-instar larvae of Henosepilachna vigintioctopunctata assessed as mortality after 2 days; settings: 48 h
Tetranychus urticae = assay: Insecticidal activity against Tetranychus urticae (two-spotted spider mite) in kidney bean plant leaf assessed as mortality at 500 ppm after 2 days; settings: 48 h
Laodelphax striatellus = assay: Insecticidal activity against 3rd instar larva of Laodelphax striatella (small brown planthopper) assessed as mortality at 50 ppm after 6 days; settings: 144 h
Chilo suppressalis = assay: Insecticidal activity against 5th instar larva of Chilo suppressalis assessed as mortality at 50 ug/g after 48 hr

SMILES	mortality at 500 ppm (Spodoptera litura) [%]	LC50 [1] [µg/mL]	mortality at 500 ppm (Tetranychus urticae) [%]	mortality at 50 ppm (Laodelphax striatellus) [%]	mortality (Chilo suppressalis) [%]
CCCCCCCCNC(=O)C1(C#N)SCC(N(C)C)CS1 (centres undefined)	80	23 (≈ 66.9 µM)	100	80	100
CN(C)C1CSC(C#N)(c2cc(F)ccc2F)SC1 (centres undefined)		30 (≈ 99.9 µM)	100	30	100
Cc1ccc(C2(C#N)SCC(N(C)C)CS2)cc1 (centres undefined)		25 (≈ 89.8 µM)	100	85	100
CN(C)C(=O)C1(C#N)SCC(N(C)C)CS1 (centres undefined)	80	11 (≈ 42.4 µM)	70	20	100
CCNC(=O)C1(C#N)SCC(N(C)C)CS1 (centres undefined)	80	6 (≈ 23.1 µM)	90	20	100
CCCCCNC(=O)C1(C#N)SCC(N(C)C)CS1 (centres undefined)	50	10 (≈ 33.2 µM)	50	29	100
CN1CCN(C(=O)C2(C#N)SCC(N(C)C)CS2)CC1 (centres undefined)	20	20 (≈ 63.6 µM)	100	35	100
CN(C)C1CSC(C#N)(C(=O)N2CCCC2)SC1 (centres undefined)	20	10 (≈ 35 µM)	100	25	100
Cc1ccccc1C1(C#N)SCC(N(C)C)CS1 (centres undefined)		100 (≈ 359 µM)	60	20	100
CN(C)C1CSC(C#N)(c2ccccc2F)SC1 (centres undefined)		15 (≈ 53.1 µM)	100	55	100
CCCCCCCCCCCCCCNC(=O)C1(C#N)SCC(N(C)C)CS1 (centres undefined)	70	33 (≈ 77.2 µM)	70	25	100
COc1ccc(C2(C#N)SCC(N(C)C)CS2)cc1 (centres undefined)		35 (≈ 119 µM)	100	20	100
CN(C)C1CSC(C#N)(c2ccccc2[N+](=O)[O-])SC1 (centres undefined)		19 (≈ 61.4 µM)	70	85	100
CCCCCCNC(=O)C1(C#N)SCC(N(C)C)CS1 (centres undefined)	70	10 (≈ 31.7 µM)	100	65	100
CN(C)C1CSC(C#N)(C(=O)NC2CCCCC2)SC1 (centres undefined)	50	25 (≈ 79.7 µM)	80	40	100
CCCCCCCCCCNC(=O)C1(C#N)SCC(N(C)C)CS1 (centres undefined)	50	20 (≈ 53.8 µM)	90	85	100
CCN(CC)C(=O)C1(C#N)SCC(N(C)C)CS1 (centres undefined)	80	15 (≈ 52.2 µM)	80	24	100
CN(C)C1CSC(C#N)(c2ccccc2Cl)SC1 (centres undefined)		15 (≈ 50.2 µM)	100	95	100
CNC(=O)C1(C#N)SCC(N(C)C)CS1 (centres undefined)	90	25 (≈ 102 µM)	100	50	100
CN(C)C1CSC(C#N)(c2cccc(C(F)(F)F)c2)SC1 (centres undefined)		18 (≈ 54.1 µM)	100	95	100
CN(C)C1CSC(C#N)(c2ccc(Cl)cc2)SC1 (centres undefined)		120 (≈ 402 µM)	100	75	100
CN(C)C1CSC(C#N)(c2ccc(Br)cc2)SC1 (centres undefined)		25 (≈ 72.8 µM)	100	100	100
CN(C)C1CSC(C#N)(c2ccc(N)cc2)SC1 (centres undefined)		25 (≈ 89.5 µM)	100	45	100
CCCNC(=O)C1(C#N)SCC(N(C)C)CS1 (centres undefined)	60	11 (≈ 40.2 µM)	100	20	100

SMILES	mortality at 500 ppm (Spodoptera litura) [%]	LC50 [1] [µg/mL]	mortality at 500 ppm (Tetranychus urticae) [%]	mortality at 50 ppm (Laodelphax striatellus) [%]	mortality (Chilo suppressalis) [%]
CCCCNC(=O)C1(C#N)SCC(N(C)C)CS1 (centres undefined)	80	40 (≈ 139 µM)	100	20	100
CN(C)C1CSC(C#N)(c2ccc(Cl)c(Cl)c2)SC1 (centres undefined)		12 (≈ 36 µM)	50	40	100
CN(C)C1CSC(C#N)(C(=O)NC2CC2)SC1 (centres undefined)	50	8 (≈ 29.5 µM)	40	25	100
CN(C)C1CSC(C#N)(C(=O)NC(C)(C)C)SC1 (centres undefined)	80	20 (≈ 69.6 µM)	100	45	100
Cc1ccc(C)c(C2(C#N)SCC(N(C)C)CS2)c1 (centres undefined)		25 (≈ 85.5 µM)	100	15	100
CN(C)C1CSC(C#N)(c2cccc(Cl)c2)SC1 (centres undefined)		10 (≈ 33.5 µM)	80	85	100
CN(C)C1CSC(C#N)(c2cccc(Br)c2)SC1 (centres undefined)		15 (≈ 43.7 µM)	100	70	100
Cc1cccc(C2(C#N)SCC(N(C)C)CS2)c1 (centres undefined)		120 (≈ 431 µM)	80	30	100
COc1ccccc1C1(C#N)SCC(N(C)C)CS1 (centres undefined)		30 (≈ 102 µM)	100	20	100
CN(C)C1CSC(C#N)(c2c(Cl)cccc2Cl)SC1 (centres undefined)		15 (≈ 45 µM)	80	99	100
CN(C)C1CSC(C#N)(c2cc(Cl)cc(Cl)c2)SC1 (centres undefined)		133 (≈ 399 µM)	100	55	100
CC(C)N(C(=O)C1(C#N)SCC(N(C)C)CS1)C(C)C (centres undefined)	60	16 (≈ 50.7 µM)	100	26	100
CN(C)C1CSC(C#N)(c2ccc(F)cc2)SC1 (centres undefined)		130 (≈ 460 µM)	100	15	100
CCCCCCCCCNC(=O)C1(C#N)SCC(N(C)C)CS1 (centres undefined)	90	23 (≈ 64.3 µM)	100	100	100
CN(C)C1CSSC1 [NEREISTOXIN]	90		50	80	100
CC(C)NC(=O)C1(C#N)SCC(N(C)C)CS1 (centres undefined)	40	40 (≈ 146 µM)	100	20	100
CCCCCCCNC(=O)C1(C#N)SCC(N(C)C)CS1 (centres undefined)	80	23 (≈ 69.8 µM)	90	80	100
CN(C)C1CSC(C#N)(c2ccc([N+](=O)[O-])cc2)SC1 (centres undefined)		18 (≈ 58.2 µM)	60	95	100
CN(C)C1CSC(C#N)(c2ccccc2Br)SC1 (centres undefined)		10 (≈ 29.1 µM)	100	85	100
CN(C)C1CSC(C#N)(c2cccc([N+](=O)[O-])c2)SC1 (centres undefined)		15 (≈ 48.5 µM)	100	70	100
CN(C)C1CSC(C#N)(c2ccccc2)SC1 (centres undefined)		200 (≈ 756 µM)	10	15	100
CN(C)C1CSC(C#N)(C(N)=O)SC1 (centres undefined)	100	30 (≈ 130 µM)	100	35	100
CN(C)C1CSC(C#N)(c2cccc(F)c2)SC1 (centres undefined)		18 (≈ 63.7 µM)	100	85	100
CCC(C)NC(=O)C1(C#N)SCC(N(C)C)CS1 (centres undefined)	80	33 (≈ 115 µM)	100	25	100
